In patent US7674795B2, “Fluorene derivatives, composition containing said derivatives and the use thereof” (Aventis Pharma SA, priority 2005, dated 2010) one finds IC50 data, which are given here for 31 compounds.

The structures appear in SMILES notation. Where a name gives a salt, the structure may show the parent alone. Where only a bound is given, the exact number is not on record here.

For orientation: IC50 means the concentration that inhibits the measured activity by half.

Sequence of Hsp82 (P02829 whole entry): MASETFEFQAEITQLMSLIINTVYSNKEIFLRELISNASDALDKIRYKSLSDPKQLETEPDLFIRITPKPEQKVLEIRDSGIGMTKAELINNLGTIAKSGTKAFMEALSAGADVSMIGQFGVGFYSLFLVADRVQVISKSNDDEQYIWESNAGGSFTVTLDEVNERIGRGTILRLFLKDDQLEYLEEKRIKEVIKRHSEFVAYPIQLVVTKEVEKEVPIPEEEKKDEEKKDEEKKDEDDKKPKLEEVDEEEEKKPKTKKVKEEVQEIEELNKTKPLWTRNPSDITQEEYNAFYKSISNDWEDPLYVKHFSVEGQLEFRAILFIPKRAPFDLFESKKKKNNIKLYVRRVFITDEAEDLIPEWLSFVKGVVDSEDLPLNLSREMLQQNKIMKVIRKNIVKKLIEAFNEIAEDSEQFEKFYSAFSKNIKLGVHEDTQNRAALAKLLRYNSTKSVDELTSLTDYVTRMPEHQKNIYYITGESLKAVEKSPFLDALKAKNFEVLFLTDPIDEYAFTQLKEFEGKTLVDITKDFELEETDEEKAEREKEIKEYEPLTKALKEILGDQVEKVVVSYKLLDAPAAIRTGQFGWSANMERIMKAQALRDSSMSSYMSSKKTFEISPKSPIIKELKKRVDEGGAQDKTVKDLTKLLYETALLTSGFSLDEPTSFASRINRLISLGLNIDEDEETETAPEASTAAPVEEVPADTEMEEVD

The test addresses Hsp82 (Saccharomyces cerevisiae, UniProt P02829). The experiment in a line: PK/LDH enzyme coupling test of the ATPase activity of Hsp82 (NADH decrease at 340 nm). It is filed as biochemical. To be noted: 1 μM Hsp82, 250 μM ATP, 37° C., pyruvate kinase/lactate dehydrogenase coupling, read-out: Hsp82 ATPase IC50. From the text:
The formation of ADP due to the ATPase activity of Hsp82 was utilized for developing another method of evaluating the enzymatic activity of this enzyme by application of an enzyme coupling system employing pyruvate kinase (PK) and lactate dehydrogenase (LDH). In this spectrophotometric method of the kinetic type, the PK catalyses the formation of ATP and of pyruvate starting from phosphoenol-pyruvate (PEP) and the ADP produced by HSP82. The pyruvate that formed, an LDH substrate, is then converted to lactate in the presence of NADH. In this case, the decrease in the concentration of NADH, measured by the decrease in absorbance at wavelength of 340 nm, is proportional to the concentration of ADP produced by HSP82. […] This mixture is preincubated at 37° C. for 30 min before adding 3.77 units of LDH and 3.77 units of PK. The reaction is started by adding the product to be evaluated, in variable concentrations, and of Hsp82, at a concentration of 1 μM. The enzymatic activity of Hsp82 is then measured continuously in a microplate reader at 37° C., at wavelength of 340 nm. The initial reaction rate is found by measuring the slope of the tangent at the origin of the recorded curve. The enzymatic activity is expressed as μM of ADP formed per minute. The effect of the various products tested is expressed as percentage of inhibition of ATPase activity, using the following codes: • A: […]
Regarding `Cc1noc(C)c1NC(=O)NC1c2ccccc2-c2c(-c3nc4ccncc4[nH]3)cccc21` (racemic) [Example 76, 1-(3,5-dimethyl-isoxazol-4-yl)-3-[4-(3H-imidazo[4,5-c]pyridin-2-yl)-9H-fluoren-9(R,S)-yl]-urea], the IC50 is 10 to 100 µM. Consider `CCOC(=O)CCNC(=O)NC1c2ccccc2-c2c(-c3nc4ccncc4[nH]3)cccc21` (racemic) [Example 77, ethyl ester of 3-{3-[4-(3H-imidazo[4,5-c]pyridin-2-yl)-9H-fluoren-9(R,S)-yl]-ureido}-propionic acid], for which the IC50 is 1 to 10 µM.

Regarding `CCOC(=O)CNC(=O)NC1c2ccccc2-c2c(-c3nc4ccncc4[nH]3)cccc21` (racemic) [Example 78, ethyl ester of {3-[4-(3H-imidazo[4,5-c]pyridin-2-yl)-9H-fluoren-9(R,S)-yl]-ureido}-acetic acid], the IC50 fell in the range of 10 to 100 µM.

Regarding `NC(=O)CCNC(=O)NC1c2ccccc2-c2c(-c3nc4ccncc4[nH]3)cccc21` (racemic) [Example 79, trifluoroacetate of 3-{3-[4-(3H-imidazo[4,5-c]pyridin-2-yl)-9H-fluoren-9(R,S)-yl]-ureido}-propionamide], the IC50 lay within 10 to 100 µM. The figure for `O=C1CNC(=O)N1C1c2ccccc2-c2c(-c3nc4ccncc4[nH]3)cccc21` (racemic) [Example 80, 3-[4-(3H-imidazo[4,5-c]pyridin-2-yl)-9H-fluoren-9(R,S)-yl]-imidazolidine-2,4-dione] is 10 to 100 µM. As for `O=C(NC1c2ccccc2-c2c(-c3nc4ccncc4[nH]3)cccc21)c1cc[n+]([O-])cc1` (racemic) [Example 81, N-[4-(3H-imidazo[4,5-c]pyridin-2-yl)-9H-fluoren-9(R,S)-yl]-1-oxyisonicotinamide], the IC50 lay in the range of 1 to 10 µM.

On to `CCc1cc(C(=O)NC2c3ccccc3-c3c(-c4nc5ccncc5[nH]4)cccc32)ccn1` (racemic) [Example 82, 2-ethyl-N-[4-(3H-imidazo[4,5-c]pyridin-2-yl)-9H-fluoren-9(R,S)-yl]-isonicotinamide], for which the IC50 was less than 1 µM. The figure for `O=C(NC1c2ccccc2-c2c(-c3nc4ccccc4[nH]3)cccc21)c1cccc2ncccc12` (racemic) [Example 83, [4-(1H-benzimidazol-2-yl)-9H-fluoren-9(R,S)-yl]amide of quinoline-5-carboxylic acid] is 10 to 100 µM.

`O=C(NC1c2ccccc2-c2c(-c3nc4ccc(F)cc4[nH]3)cccc21)c1cccc2ncccc12` (racemic) [Example 84, [4-(6-fluoro-1H-benzimidazol-2-yl)-9H-fluoren-9(R,S)-yl]amide of quinoline-5-carboxylic acid]: the IC50 lay in the range of 1 to 10 µM. The result for `O=C(NC1c2ccccc2-c2c(-c3nc4ccncc4[nH]3)cccc21)c1ccnc(Cl)c1` (racemic) [Example 87, 2-chloro-N-[4-(3H-imidazo[4,5-c]pyridin-2-yl)-9H-fluoren-9(R,S)-yl]-isonicotinamide] reads 1 to 10 µM; that for `O=C(NC1c2ccccc2-c2c(-c3nc4ccncc4[nH]3)cccc21)c1ccnc2[nH]ccc12` (racemic) [Example 92, [4-(3H-imidazo[4,5-c]pyridin-2-yl)-9H-fluoren-9(R,S)-yl]amide of 1H-pyrrolo[2,3-b]pyridine-4-carboxylic acid], less than 1 µM; that for `O=C(NC1c2ccccc2-c2c(-c3nc4ccncc4[nH]3)cccc21)c1ccnc(CO)c1` (racemic) [Example 94, 2-hydroxymethyl-N-[4-(3H-imidazo[4,5-c]pyridin-2-yl)-9H-fluoren-9(R,S)-yl]-isonicotinamide], 1 to 10 µM. The figure for `O=C(NC1c2ccccc2-c2c(-c3nc4ccncc4[nH]3)cccc21)c1ccnc(F)c1` (racemic) [Example 95, 2-fluoro-N-[4-(3H-imidazo[4,5-c]pyridin-2-yl)-9H-fluoren-9(R,S)-yl]-isonicotinamide] is 1 to 10 µM. `Cc1cnccc1C(=O)NC1c2ccccc2-c2c(-c3nc4ccncc4[nH]3)cccc21` (racemic) [Example 96, N-[4-(3H-imidazo[4,5-c]pyridin-2-yl)-9H-fluoren-9(R,S)-yl]-3-methyl-isonicotinamide]: the 50% inhibitory concentration (IC50) lay in the range of 1 to 10 µM. Take `O=C(NC1c2ccccc2-c2c(-c3nc4ccncc4[nH]3)cccc21)c1ccnc2ncccc12` (racemic) [Example 97, hydrochloride of [4-(3H-imidazo[4,5-c]pyridin-2-yl)-9H-fluoren(R,S)-9-yl]amide of 1,8-naphthyridine-4-carboxylic acid]: the IC50 lay within 1 to 10 µM. The figure for `O=C(NC1c2ccccc2-c2c(-c3nc4ccncc4[nH]3)cccc21)c1ccncc1Br` (racemic) [Example 98, 3-bromo-N-[4-(3H-imidazo[4,5-c]pyridin-2-yl)-9H-fluoren-9(R,S)-yl]-isonicotinamide] is 1 to 10 µM. With `C[C@@H](C(=O)N[C@@H]1c2ccccc2-c2c(-c3nc4ccncc4[nH]3)cccc21)c1cccnc1` (racemic) [Example 100, N-[4-(3H-imidazo[4,5-c]pyridin-2-yl)-9H-fluoren-9(R,S)-yl]-2(R,S)-(pyridin-3-yl)-propionamide], the IC50 lay in the range of 10 to 100 µM. As for `O=C(NC1c2ccccc2-c2c(-c3nc4ccncc4[nH]3)cccc21)c1ccnc(Br)c1` (racemic) [Example 102, 2-bromo-N-[4-(3H-imidazo[4,5-c]pyridin-2-yl)-9H-fluoren-9(R,S)-yl]-isonicotinamide], the IC50 is less than 1 µM. The figure for `O=C(NC1c2ccccc2-c2c(-c3nc4ccncc4[nH]3)cccc21)c1ccncc1O` (racemic) [Example 103, 3-hydroxy-N-[4-(3H-imidazo[4,5-c]pyridin-2-yl)-9H-fluoren-9(R,S)-yl]-isonicotinamide] is less than 1 µM; for `Nc1cnccc1C(=O)NC1c2ccccc2-c2c(-c3nc4ccncc4[nH]3)cccc21` (racemic) [Example 104, 3-amino-N-[4-(3H-imidazo[4,5-c]pyridin-2-yl)-9H-fluoren-9(R,S)-yl]-isonicotinamide] it is less than 1 µM; for `N#Cc1cc(C(=O)NC2c3ccccc3-c3c(-c4nc5ccncc5[nH]4)cccc32)ccn1` (racemic) [Example 105, 2-cyano-N-[4-(3H-imidazo[4,5-c]pyridin-2-yl)-9H-fluoren-9(R,S)-yl]-isonicotinamide] it is 1 to 10 µM. The result for `COc1ccc2nc(-c3cccc4c3-c3ccccc3C4NC(=O)c3ccncc3)[nH]c2c1` (racemic) [Example 106, N-[4-(6-methoxy-1H-benzimidazol-2-yl)-9H-fluoren-9(R,S)-yl]-isonicotinamide] reads 1 to 10 µM; that for `ON=C1c2ccccc2-c2c1cccc2-c1nc2ccc(O)cc2[nH]1` (racemic) [Example 107, 4-(6-hydroxy-1H-benzimidazol-2-yl)-fluoren-9-one oxime (Z,E)], 10 to 100 µM; that for `COC(=O)c1cc(C(=O)NC2c3ccccc3-c3c(-c4nc5ccncc5[nH]4)cccc32)ccn1` (racemic) [Example 108, methyl ester of 4-[4-(3H-imidazo[4,5-c]pyridin-2-yl)-9H-fluoren-9(R,S)-ylcarbamoyl]-pyridine-2-carboxylic acid], less than 1 µM. On to `O=C(NC1c2ccccc2-c2c(-c3nc4ccncc4[nH]3)cccc21)c1ccnc(C(=O)O)c1` (racemic) [Example 109, 4-[4-(3H-imidazo[4,5-c]pyridin-2-yl)-9H-fluoren-9(R,S)-ylcarbamoyl]-pyridine-2-carboxylic acid], for which the IC50 was 10 to 100 µM.

In the case of `O=C(NC1c2ccccc2-c2c(-c3nc4cccnc4[nH]3)cccc21)c1ccncc1` (racemic) [Example 110, N-[4-(3H-imidazo[4,5-b]pyridin-2-yl)-9H-fluoren-9(R,S)-yl]-isonicotinamide], the IC50 lay in the range of 10 to 100 µM. The figure for `COCCCNC(=O)c1cc(C(=O)NC2c3ccccc3-c3c(-c4nc5ccncc5[nH]4)cccc32)ccn1` (racemic) [Example 112, 4-{[4-(3H-imidazo[4,5-c]pyridin-2-yl)-9H-fluoren-9(R,S)-yl]amide}-2-[(3-methoxy-propyl)-amide] of pyridine-2,4-dicarboxylic acid] is 1 to 10 µM; for `O=C(NC1c2ccccc2-c2c(-c3nc4ccncc4[nH]3)cccc21)c1cc(-c2ccco2)nc2ccccc12` (racemic) [Example 113, [4-(3H-imidazo[4,5-c]pyridin-2-yl)-9H-fluoren-9(R,S)-yl]amide of 2-(furan-2-yl)-quinoline-4-carboxylic acid] it is 1 to 10 µM. The figure for `O=C(NC1c2ccccc2-c2c(-c3nc4ccncc4[nH]3)cccc21)c1ccncc1F` (racemic) [Example 114, 3-fluoro-N-[4-(3H-imidazo[4,5-c]pyridin-2-yl)-9H-fluoren-9(R,S)-yl]-isonicotinamide] is 1 to 10 µM. The result for `Nc1cccc(C(=O)NC2c3ccccc3-c3c(-c4nc5ccncc5[nH]4)cccc32)c1` (racemic) [Example 115, 3-amino-N-[4-(3H-imidazo[4,5-c]pyridin-2-yl)-9H-fluoren-9(R,S)-yl]-benzamide] reads 10 to 100 µM; that for `CNc1cc(C(=O)NC2c3ccccc3-c3c(-c4nc5ccncc5[nH]4)cccc32)ccn1` (racemic) [Example 116, N-[4-(3H-imidazo[4,5-c]pyridin-2-yl)-9H-fluoren-9(R,S)-yl]-2-methylamino-isonicotinamide], 1 to 10 µM.
